Values after ≈ are worked out from the molar mass of the structure shown. Like-named read-outs stand apart in the source and are kept apart here. Some results are limits rather than exact numbers.

As usually defined, the MIC50 is an inhibitory concentration at the 50% level, which refers to growth in some studies and to a panel of isolates in others. A word on the MIC90: it is an inhibitory concentration at the 90% level, which refers to growth in some studies and to a panel of isolates in others.

Test [1] deals with MRSA (methicillin resistance Staphylococcus aureus) strains. The test is described as follows: MIC50/MIC90 against a collection of genotypically characterized S. aureus isolates. It counts as cell-based. On the procedure:
(§1) The antibacterial activity of MF-BA-1768α1 and MF-BA-1768β1 were determined against a spectrum of bacterial strains using a broth microdilution assay performed as recommended by the NCCLS (NCCLS Document M7-A4, Vol 17 No.2). With the exception of Streptococci spp. and H. influenzae, the assay was performed in Cation Adjusted Mueller-Hinton Broth (CAMHB). For the Streptococci spp., CAMHB+2-5% Laked Horse Blood (REMEL) was used. For H. influenzae, Haemophilus Test Medium (REMEL) containing 2% Fildes Enrichment was used. The final bacterial inoculum was 5×10^5 CFU/ml in a final assay volume of 100 μl. Microtiter plates containing the test samples and the respective bacterial inoculum were incubated for 24 hours at 35° C. with the exception of E. coli plates, which were incubated for 20 hours at 35° C. Upon completion of incubation, the plates were read using a microtiter plate reader (Molecular Devices) at 650 nm as well as by visual observation using a microtiter plate reading mirror. […]
(§2) The antibacterial activity of MF-BA-1768β1 was further evaluated side-by-side with 9 reference antibiotics against a collection of genotypically well-characterized isolates of Staphylococcus aureus. These included 64 MRSA (methicillin resistance Staphylococcus aureus) strains and 19 MSSA (methicillin sensitive Staphylococcus aureus) strains representing 57 staphylococcal protein A genotypes and 22 coagulase A genotypes. The most common protein A genotypes found in the USA were represented by more than one isolate.

In test [2] the test system is MSSA (methicillin sensitive Staphylococcus aureus) strains. The description is as above. It counts as cell-based. The protocol:
as §1, §2

[3] abbreviates: Staphylococcus aureus, MRSA (64 strains), read-out: MIC50.
[4] abbreviates: Staphylococcus aureus, MRSA (64 strains), read-out: MIC90.
Where [5] appears, read: Staphylococcus aureus, MSSA (19 strains), read-out: MIC50.
Where [6] appears, read: Staphylococcus aureus, MSSA (19 strains), read-out: MIC90.

Turning to `C[C@@H](O)[C@H]1C(=O)N2C(C(=O)O)=C(SCCN=CN)C[C@H]12` [Imipenem], the MIC50 is 8 mg/L (≈ 26.7 µM) in test [1] (setting [3]) and at most 0.5 mg/L in test [2] (setting [5]). The MIC90 in test [1] (setting [4]) amounted to 128 mg/L (≈ 428 µM); in test [2] (setting [6]) it was 4 mg/L (≈ 13.4 µM).
For the compound `CCOc1ccc2ccccc2c1C(=O)N[C@@H]1C(=O)N2[C@@H]1SC(C)(C)[C@@H]2C(=O)O` [Nafcillin], the MIC50 was 64 mg/L (≈ 154 µM) in test [1] (setting [3]) and at most 1 mg/L in test [2] (setting [5]). Moreover, the MIC90 is 256 mg/L (≈ 618 µM) in test [1] (setting [4]) and 16 mg/L (≈ 38.6 µM) in test [2] (setting [6]).
For the compound `CN[C@H](CC(C)C)C(=O)N[C@H]1C(=O)N[C@@H](CC(N)=O)C(=O)N[C@H]2C(=O)N[C@H]3C(=O)N[C@H](C(=O)N[C@H](C(=O)O)c4cc(O)cc(O)c4-c4cc3ccc4O)[C@H](O)c3ccc(c(Cl)c3)Oc3cc2cc(c3O[C@@H]2O[C@H](CO)[C@@H](O)[C@H](O)[C@H]2O[C@H]2C[C@](C)(N)[C@H](O)[C@H](C)O2)Oc2ccc(cc2Cl)[C@H]1O` [Vancomycin], in test [1] (Staphylococcus aureus, MRSA), the MIC50 stood at 0.5 mg/L (≈ 0.345 µM) and the MIC90 was determined as 1 mg/L (≈ 0.69 µM). In addition, in test [2] (Staphylococcus aureus, MSSA), the MIC50 was 0.5 mg/L (≈ 0.345 µM) and the MIC90 was found to be 1 mg/L (≈ 0.69 µM).
On to `CN(C)[C@@H]1C(O)=C(C(N)=O)C(=O)[C@@]2(O)C(O)=C3C(=O)c4c(O)cccc4[C@@](C)(O)[C@H]3C[C@@H]12` [Tetracycline], for which the MIC50 in test [1] (setting [3]) and in test [2] (setting [5]) was 0.25 mg/L (≈ 0.563 µM) each time. Further, the MIC90 in test [1] (setting [4]) was above 32 mg/L; in test [2] (setting [6]), 32 mg/L (≈ 72 µM).
For `Cc1onc(-c2ccccc2)c1C(=O)N[C@@H]1C(=O)N2[C@@H]1SC(C)(C)[C@@H]2C(=O)O` [Oxacillin], the MIC50 is 128 mg/L (≈ 319 µM) in test [1] (setting [3]) and at most 1 mg/L in test [2] (setting [5]). The figures for the MIC90 in test [1] (setting [4]) and in test [2] (setting [6]) were 512 mg/L (≈ 1280 µM) and 64 mg/L (≈ 159 µM), respectively.
In test [1] (MRSA (64 strains)), Gentamicin had an MIC50 of 1 mg/L and an MIC90 above 32 mg/L. In test [2] (MSSA (19 strains)), this compound displayed an MIC50 of 0.5 mg/L and an MIC90 of 32 mg/L.
On to `CC1COc2c(N3CCN(C)CC3)c(F)cc3c(=O)c(C(=O)O)cn1c23` (stereo not drawn) [Ofloxacin], for which the MIC50 in test [1] (setting [3]) and in test [2] (setting [5]) was 0.5 mg/L (≈ 1.38 µM) in each case. Also, the MIC90 in test [1] (setting [4]) and in test [2] (setting [6]) was 32 mg/L (≈ 88.6 µM) throughout.
For the compound `CO[C@H]1/C=C/O[C@@]2(C)Oc3c(C)c(O)c4c(O)c(c(/C=N/N5CCN(C)CC5)c(O)c4c3C2=O)NC(=O)/C(C)=C\C=C\[C@H](C)[C@H](O)[C@@H](C)[C@@H](O)[C@@H](C)[C@H](OC(C)=O)[C@@H]1C` [Rifampicin], the MIC50 in test [1] (setting [3]) and in test [2] (setting [5]) was at most 0.0625 mg/L each time. The MIC90 is above 32 mg/L in test [1] (setting [4]) and at most 0.0625 mg/L in test [2] (setting [6]).
In the case of `CO/N=C(\C(=O)N[C@@H]1C(=O)N2C(C(=O)O)=C(COC(C)=O)CS[C@H]12)c1csc(N)n1` [Cefotaxime], the values for the MIC50 in test [1] (setting [3]) and in test [2] (setting [5]) were 512 mg/L (≈ 1120 µM) and 2 mg/L (≈ 4.39 µM), respectively. For the same compound, the MIC90 in test [1] (setting [4]) is above 512 mg/L; in test [2] (setting [6]), 256 mg/L (≈ 562 µM).

For the origin of these results see patent US6551591B1, “Antibiotics from microbispora” (priority 2001, dated 2003).
